Series [1] concerns MCF7. As to the kind of experiment: Cytotoxicity against human ER-positive MCF7 cells assessed as increase in cell proliferation at 12.5 to 100 uM incubated for 24 hrs. In kind it is cell-based. As to conditions: mcf7, 24 h, dose 12.5-100 µM.
Series [2] relates to MCF7. As to the kind of experiment: Estrogenic activity at human ER-positive MCF7 cells assessed as increase in cell proliferation at 50 uM incubated for 144 hrs by Soto's E-screen assay. In kind it is functional, cell-based.
In series [3] the test system is MCF7. The experiment in a line: Cytotoxicity against human ER-positive MCF7 cells assessed as reduction in cell proliferation at 50 uM incubated for 144 hrs by Soto's E-screen assay. Format: cell-based. As to conditions: mcf7, 144 h.
Series [4] deals with Rattus norvegicus. As to the kind of experiment: Estrogenic activity in immature rat model assessed as uterine weight at 10 ug/kg, sc (reference value: 37.67 mg). In kind it is functional. As to conditions: dose 10 µg/kg.
Series [5] deals with MCF7. As to the kind of experiment: Estrogenic activity at human ER-positive MCF7 cells assessed as cell proliferation at 50 uM incubated for 144 hrs by Soto's E-screen assay relative to control. Format: functional. As to conditions: read-out: Activity.
The subject of series [6] is MCF7. As to the kind of experiment: Cytotoxicity against human ER-positive MCF7 cells assessed as decrease in cell proliferation at 12.5 to 100 uM incubated for 24 hrs. Format: functional, cell-based. To be noted: for IC50: MCF7, 24 h; for inhibition: dose 12.5-100 µM.
In series [7] the target is T1, Estrogen receptor (Homo sapiens) (UniProt P03372).
T1 sequence (whole entry): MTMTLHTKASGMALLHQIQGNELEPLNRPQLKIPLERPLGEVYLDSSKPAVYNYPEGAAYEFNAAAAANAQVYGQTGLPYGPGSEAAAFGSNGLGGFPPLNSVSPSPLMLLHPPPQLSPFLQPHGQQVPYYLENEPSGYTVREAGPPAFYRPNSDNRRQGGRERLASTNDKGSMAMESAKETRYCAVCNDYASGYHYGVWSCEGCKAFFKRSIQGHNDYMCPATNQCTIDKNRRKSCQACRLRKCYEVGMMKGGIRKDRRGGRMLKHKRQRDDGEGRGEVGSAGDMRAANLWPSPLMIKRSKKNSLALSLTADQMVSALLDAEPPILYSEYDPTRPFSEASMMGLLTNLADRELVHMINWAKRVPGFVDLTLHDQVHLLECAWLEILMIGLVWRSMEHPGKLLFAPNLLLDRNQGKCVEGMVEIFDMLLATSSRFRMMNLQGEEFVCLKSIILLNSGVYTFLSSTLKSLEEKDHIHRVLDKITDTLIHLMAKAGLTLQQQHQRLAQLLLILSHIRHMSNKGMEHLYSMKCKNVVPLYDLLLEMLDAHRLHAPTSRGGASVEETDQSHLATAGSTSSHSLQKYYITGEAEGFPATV
As to the kind of experiment: Agonist activity at ER in human MCF7 cells assessed as increase in receptor gene activity by luciferase reporter gene assay. In kind it is cell-based. As to conditions: filed as agonist, dose 12.5-100 µM. (In a reporter assay the amount or activity of a reporter protein is the signal.)

Series [8] addresses T1, Estrogen receptor (Homo sapiens). The experiment in a line: Agonist activity at ER in human MCF7 cells assessed as increase in receptor gene activity at 12.5 to 100 uM in presence of ER antagonist, ICI182780 by luciferase reporter gene assay. Format: cell-based. To be noted: dose 12.5-100 µM.
The test system of series [9] is MCF7. As to the kind of experiment: Estrogenic activity at human ER-positive MCF7 cells assessed as increase in cell proliferation incubated for 144 hrs by Soto's E-screen assay. Format: functional, cell-based. As to conditions: dose 25-100 µM.
Series [10] has as its system MCF7. As to the kind of experiment: Estrogenic activity at human ER-positive MCF7 cells assessed as increase in cell proliferation at 50 uM incubated for 144 hrs in presence of ER antagonist, ICI182780 by Soto's E-screen assay. Format: functional, cell-based.
Series [11] concerns the target T1, Estrogen receptor (Homo sapiens). As to the kind of experiment: Agonist activity at ER in human MCF7 cells assessed as increase in receptor gene activity at 12.5 to 100 uM in presence of ER agonist, 17-beta-estradiol by luciferase reporter gene assay relative to control. To be noted: dose 12.5-100 µM. In kind it is cell-based.
The test system of series [12] is MCF7. The experiment in a line: Estrogenic activity at human ER-positive MCF7 cells assessed as increase in cell proliferation at 12.5 to 100 uM incubated for 144 hrs in presence of ER antagonist, ICI182780 by Soto's E-screen assay. Format: functional, cell-based. As to conditions: dose 12.5-100 µM.
The subject of series [13] is Rattus norvegicus. As to the kind of experiment: Estrogenic activity in immature rat model assessed as uterine weight at 100 mg/kg, sc administered once daily for 3 days (reference value: 37.67 mg). Format: functional. To be noted: dose 100 mg/kg/day; time 3 day.
The subject of series [14] is MCF7. As to the kind of experiment: Cytotoxicity against human ER-positive MCF7 cells assessed as cell proliferation at 50 uM incubated for 144 hrs by Soto's E-screen assay relative to control. In kind it is cell-based. As to conditions: mcf7, 144 h.

SMILES strings stand for the structures. Activity calls are given as the source filed them. No cut-off for these calls is given here.

Experimental findings from ChEMBL document CHEMBL4819049, “Estrogenic activity of ethyl gallate and its potential use in hormone replacement therapy” (Bioorg Med Chem Lett, 2021) are described below.

As for `C[C@@]12C[C@@]3(O)O[C@@H](O1)[C@]1(COC(=O)c4ccccc4)[C@H]3C[C@@]12O[C@@H]1O[C@H](COC(=O)c2ccccc2)[C@@H](O)[C@H](O)[C@H]1O`, the Activity entry in the series on MCF7 [1] and in the series on MCF7 [3] was “Non-Toxic” throughout. In addition, the outcome in the series with MCF7 [2] was inactive.
Take `C[C@@]12C[C@@]3(O)O[C@@H](O1)[C@]1(COC(=O)c4ccc(O)cc4)[C@H]3C[C@@]12O[C@@H]1O[C@H](CO)[C@@H](O)[C@H](O)[C@H]1O`: the Activity result in the series with MCF7 [1] and in the series on MCF7 [3] was “Non-Toxic” in each case. Besides, the result with MCF7 [2] was inactive.
With `O=C(O)c1ccccc1` [BENZOIC ACID], the Activity result in the series with MCF7 [1] and in the series with MCF7 [3] was “Non-Toxic” throughout. For the same compound, the result in the series with MCF7 [2] was inactive.
Regarding `C[C@]12CC[C@@H]3c4ccc(O)cc4CC[C@H]3[C@@H]1CC[C@@H]2O` [ESTRADIOL], the Activity in the series with Rattus norvegicus [4] was found to be 51 mg.
On to `CCOC(=O)c1cc(O)c(O)c(O)c1` [ETHYLGALLATE], for which the growth at 50 µM with MCF7 [5] amounted to 131%. In addition, the IC50 in the series on MCF7 [6] turned out to be 62.5 µM. In addition, in the series on MCF7 [6], the inhibition result was “Dose-Dependent Effect”. The Activity entry in series [7] was “Dose-Dependent Effect”; with MCF7 [1], “Non-Toxic”; with MCF7 [9], “Dose-Dependent Effect”; in the series with Rattus norvegicus [13] it was 43.67 mg. In addition, the result (in [8]; in the series on MCF7 [10]; in the series on MCF7 [12]) was inactive. The fold change (FC) in [11] is more than 2.
For the compound `O=C(O)c1cc(O)c(O)c(O)c1` [GALLIC ACID], the Activity with MCF7 [14] is recorded as 15.8%; in the series on MCF7 [1] it was “Non-Toxic”. Moreover, the IC50 in the series on MCF7 [6] worked out at 17.4 µM. Moreover, in the series with MCF7 [6], the inhibition entry is “Dose-Dependent Effect”.
In the case of `C[C@@]12C[C@@]3(O)O[C@@H](O1)[C@]1(COC(=O)c4ccccc4)[C@H]3C[C@@]12O[C@@H]1O[C@H](CO)[C@@H](O)[C@H](O)[C@H]1O` [PAEONIFLORIN], the Activity result in the series on MCF7 [1] and in the series with MCF7 [3] was “Non-Toxic” throughout. In addition, in the series on MCF7 [2], the outcome was inactive.
In the case of `COc1ccc(C(C)=O)c(O)c1` [PAEONOL], the Activity entry with MCF7 [1] and in the series with MCF7 [3] was “Non-Toxic” in each case. Also, in the series with MCF7 [2], the result was inactive.

As a reminder, the IC50 is the concentration that inhibits the measured activity by half.
